Reference: patent publication US20120129838A1, “Composition for Preventing and Treating Alopecia Disorder Containing Morgalanthamine Compounds as an Active Ingredient” (The Industry & Academic Cooperation in Chungnam National …, priority 2009, published 2012)
Where a name gives a salt, the structure may show the parent alone.

Tests used:
rat vibrissa follicles = assay: Growth of rat vibrissa follicles in organ culture; settings: time point of 21 days, isolated Wistar rat vibrissa follicles
Protocol: In order to measure an effect of the norgalanthamine compound prepared in Experimental Example 1 on hair growth, the following experiment was performed using a method described in the publication (Philpott M P, et al., Cyclical changes in rat vibrissa follicles maintained in vitro. J Invest Dermatol. 115, pp. 1152-1155, 2000),
A 3-week-old male Wistar rat (Japan SLC, Hamamatsu, Japan) was purchased from Central Lab. Animal Inc. (Korea), anesthetized with ethyl ether, and killed by cervical vertebral dislocation. The left and right mystacial pads of the rat were extracted and put into an E/P buffer ((EBSS, Earle's balanced salts solution, Sigma Mo., USA)+(PBS, phosphate-buffered saline, Sigma Mo., USA)) supplemented with 100 units/ml penicillin and 100 μg/ml streptomycin (Gibco Inc, NY, USA). Vibrissa follicles were carefully isolated under a steroscopic dissecting microscope. Until the hair follicles were completely isolated, the hair follicles were put into a Petri dish containing an E/P buffer, and incubated at 37° C. for 1 hour in a 5% CO2 pyrostat. 500 μl of William E medium (Gibco Inc, NY, USA) containing 2 mM. L-glutamine (Gibco Inc, NY, USA), 10 μg/ml insulin (Sigma Mo., USA), 50 nM hydrocortisone (Sigma Mo., USA) and 100 units/ml penicillin-100 μg/ml streptomycin was put into each well of a 24-well plate, and one hair follicle was added to each well, and incubated at […] in a 5% CO2 pyrostat. 10 to 12 hair follicles were used in each experimental group, and a medium was changed with a fresh medium every 3 days during the incubation. […]
Photographs of shapes of vibrissa follicles were taken using a microscope (Olympus, Japan). Lengths of hair follicles were measured at time points of 0, 7, 14 and 21 days using an image analyzer (DP controller; Olympus, Japan). An average variation in lengths of the hair follicles was calculated, and a growth level was measured by comparing the average variation with an average length of the control.

[1] = test system: rat vibrissa immortalized dermal papilla cell line; assay: Proliferation of dermal papilla cells (MTT assay); assay type: cell-based; settings: incubated for 4 days, absorbance at 540 nm
Protocol: A rat vibrissa immortalized dermal papilla cell line obtained by immortalizing dermal papilla cells isolated from rat whiskers (Filsell W, et al., Transfection of rat dermal papilla cells with a gene encoding a temperature-sensitive polyomavirus large T antigen generates cell lines a differentiated phenotype., J. Cell Sci, 107, pp. 1761-1772, 1994) was incubated at 37° C. in a DMEM (Hyclone Inc, USA) medium containing […] (Gibco Inc, NY, USA) and 10% heat-inactivated fetal bovine serum (FBS, Gibco Inc, NY, USA) using a 5% CO2 pyrostat, and subcultured every 3 days.
The cultured dermal papilla cells (1.0×10^4 cells/ml) were put into each well of a 96-well plate, and incubated for 24 hours. Then, a used culture solution was changed with a serum-free DMEM medium, and cultured again for 24 hours. Thereafter, the cultured solution was treated with 0.01 and 0.1 μM concentrations of the norgalanthamine compound of Experimental Example 1, and a 1 μM concentration of a positive control, minoxidil sulfate (M.S., Sigma, Mo., USA), respectively. The resulting mixture was incubated for 4 days, 50 μl of MTT (Sigma, Mo., USA) was added thereto, and the mixture was reacted for 4 hours. A supernatant was removed, and a pellet was dissolved in 200 μl of DMSO, and then measured for absorbance at 540 nm using a microplate reader (Amersham Pharmacia Biotech, NY, USA). An average absorbance value of each sample group was calculated, and a level of the hair proliferation was examined by comparing the average absorbance value with an absorbance value of the control.

Compound | growth of hair fiber compared to that of the control (100%) (rat vibrissa follicles; 0.01 uM) | growth of hair fiber compared to that of the control (100%) (rat vibrissa follicles; 0.1 uM) | proliferation of dermal papilla cells compared to the control (100%) ([1]; 0.01 μM) | proliferation of dermal papilla cells compared to the control (100%) ([1]; 0.1 μM) | growth of hair fiber compared to that of the control (100%) (rat vibrissa follicles; 1 uM, positive control) | proliferation of dermal papilla cells compared to the control (100%) ([1]; 1 μM, positive control)
COc1ccc2c3c1OC1C[C@@H](O)C=C[C@@]31CCNC2 (stereo partly drawn) [norgalanthamine] | 128.7±13.8% | 139.2±10.3% | 114.0±4.3% | 106.2±5.6% | – | –
Nc1cc(N2CCCCC2)nc(N)[n+]1OS(=O)(=O)[O-] [minoxidil sulfate, reference compound] | – | – | – | – | 135.03±38.8% | 114.9±4.5%
